This is an account of results in article PMC9157009, “Protein proximity networks and functional evaluation of the casein kinase 1 gamma family reveal unique roles for CK1γ3 in WNT signaling” (The Journal of Biological Chemistry, 2022).

Several values for one entry are separate records, joined by “and”; a condition that tells them apart may be missing. Equal entries are not always repeated. Where only a bound is given, the exact number is not on record here.

Test [1] deals with BAR reporter (β-catenin-dependent WNT signaling). The test is described as follows: BAR luciferase transcriptional reporter assay in HEK293T B/R cells. As to conditions: for activation of the BAR reporter: HEK293T B/R cells, 10 μM compound for 18 h, compared with dimethyl sulfoxide and FP1. In kind it is cell-based, human. On the procedure: All luciferase reporter assays were performed as previously described ([15], [43]). […] In both loss-of-function and gain-of-function experiments, treatments (WNT3A CM or drug) were added 18 h before harvesting cells. Conditions were plated in triplicate, and Renilla normalized values were averaged across triplicates to yield the data presented and standard error. Each assay was repeated in biological triplicate, unless otherwise stated. Firefly luciferase and the Renilla control were detected using the Promega Dual-Luciferase Reporter Assay System per the manufacturer’s protocol (Promega; catalog no.: E1960). Plates were read on the Victor Nivo plate reader (PerkinElmer).
Background: Reporter assays use an easily measured gene product as a stand-in for the process of interest.

Test [2] deals with T1, CK1γ2 (NLuc-CK1γ2) (Homo sapiens, UniProt P78368).
T1 construct: host or cells: HEK293T
The experiment in a line: NanoBRET cellular target engagement assay, NLuc-CK1γ2 in HEK293T cells. As to conditions: live HEK293T cells, 0.5 μM tracer K-10. The class given is cell-based. How it is done: (§1) HEK293T cells (hypotriploid, fetal) were purchased from ATCC. These cells were grown in Dulbecco’s modified Eagle’s medium (Gibco) supplemented with 10% (v/v) fetal bovine serum (Corning). They were incubated in 5% CO2 at 37 °C and passaged every 72 h with trypsin and not allowed to reach confluency. Constructs for NanoBRET measurements of CK1γ2 (NLuc-CK1γ2) and GSK3β (NLuc-GSK3β) were kindly provided by Promega. NanoBRET assays were carried out as described previously ([74]). Preferred NLuc orientations, both N-terminal in this case, are indicated in parentheses after each construct. Assays were carried out in dose–response as described by the manufacturer using 0.5 μM of tracer K-10 for CK1γ2 and 0.063 μM of tracer K-8 for GSK3β. Two biological replicates were executed with two technical replicates to produce the graphs with error bars shown in Figures 6E, 7E, 8, A and B. Tracer titration curves for these kinases that motivated our tracer selection and working concentration can be found on the Promega website.
On the technique in general: In BRET a luciferase serves as donor, and the signal depends on an acceptor being close.

The target of test [3] is T2, GSK3β (NLuc-GSK3β) (Homo sapiens, UniProt P49841).
T2 construct: host or cells: HEK293T
The test is described as follows: NanoBRET cellular target engagement assay, NLuc-GSK3β in HEK293T cells. The class given is cell-based. As to conditions: live HEK293T cells, 0.063 μM tracer K-8; read-out: NL-GSK3β NanoBRET IC50. How it is done: as §1

For test [4], the system named is β-catenin-dependent transcription. As to conditions: siRNA screen, BAR firefly luciferase reporter, ref Biechele et al, cited from earlier work; for Average BAR firefly Luciferase (Raw): raw signal per siRNA target.
The target in test [5] is T3, CK1γ3 (Homo sapiens, UniProt Q9Y6M4).
T3 construct: purchased Eurofins
The experiment in a line: Eurofins kinase enzymatic radiometric assay, CK1γ3. In kind it is biochemical. As to conditions: Km = ATP, 9-pt curve in duplicate. From the text: (§2) Details related to the substrate used, protein constructs, controls, and assay protocol for each kinase assay are included on the Eurofins website: https://www.eurofinsdiscoveryservices.com/.

Test [6] addresses T4, PCTK2 (Homo sapiens, UniProt Q00537).
T4 construct: purchased Eurofins DiscoverX Corporation
The test is described as follows: scanMAX binding assay, PCTK2. The following applies: Percent of Control; legend and method: 1 μM; read-out: PCTK2 PoC @ 1 µM. From the text: (§3) As described previously, this commercial assay platform screens against 403 WT human kinases in binding assays and provides PoC values ([73]).

Test [7] deals with T5, PCTK3 (Homo sapiens, UniProt Q07002).
T5 construct: purchased Eurofins DiscoverX Corporation
The test is described as follows: scanMAX binding assay, PCTK3. The following applies: Percent of Control; legend and method: 1 μM; read-out: PCTK3 PoC @ 1 µM.
Source text: as §3

In test [8] the target is T6, PFTK1 (Homo sapiens, UniProt O94921).
T6 construct: purchased Eurofins DiscoverX Corporation
The experiment in a line: scanMAX binding assay, PFTK1. As to conditions: Percent of Control; legend and method: 1 μM; read-out: PFTK1 PoC @ 1 µM.
Source text: as §3

In test [9] the target is T7, DYRK1B (Homo sapiens, UniProt Q9Y463).
T7 construct: purchased Eurofins DiscoverX Corporation
The experiment in a line: scanMAX binding assay, DYRK1B. The following applies: Percent of Control; legend and method: 1 μM; read-out: DYRK1B PoC @ 1 µM.
Source text: as §3

Test [10] addresses T8, GSK3β (Homo sapiens, UniProt P49841).
T8 construct: purchased Eurofins DiscoverX Corporation
The experiment in a line: scanMAX binding assay, GSK3β. As to conditions: Percent of Control; legend and method: 1 μM; read-out: GSK3β PoC @ 1 µM.
Source text: as §3

Test [11] addresses T9, CK1γ1 (Homo sapiens, UniProt Q9HCP0).
T9 construct: purchased Eurofins
The test is described as follows: scanMAX binding assay, CK1γ1. The following applies: Percent of Control; legend and method: 1 μM; read-out: CK1γ1 PoC @ 1 µM.
Source text: as §3

Test [12] addresses T10, CAMK1B (Homo sapiens, UniProt Q6P2M8).
T10 construct: purchased Eurofins DiscoverX Corporation
The experiment in a line: scanMAX binding assay, CAMK1B. As to conditions: Percent of Control; legend and method: 1 μM; read-out: CAMK1B PoC @ 1 µM.
Source text: as §3

Test [13] concerns the target T11, ERK8 (Homo sapiens, UniProt Q8TD08).
T11 construct: purchased Eurofins DiscoverX Corporation
The experiment in a line: scanMAX binding assay, ERK8. As to conditions: Percent of Control; legend and method: 1 μM; read-out: ERK8 PoC @ 1 µM.
Source text: as §3

Test [14] has as its target T9, CK1γ1. The experiment in a line: Eurofins kinase enzymatic radiometric assay, CK1γ1. In kind it is biochemical. As to conditions: Km = ATP, 9-pt curve in duplicate.
Source text: as §2

The target in test [15] is T12, CDKL5 (Homo sapiens, UniProt O76039).
T12 construct: purchased Eurofins DiscoverX Corporation
The experiment in a line: scanMAX binding assay, CDKL5. As to conditions: Percent of Control; legend and method: 1 μM; read-out: CDKL5 PoC @ 1 µM.
Source text: as §3

Test [16] has as its target T13, PCTK1 (Homo sapiens, UniProt Q00536).
T13 construct: purchased Eurofins DiscoverX Corporation
The experiment in a line: scanMAX binding assay, PCTK1. The following applies: Percent of Control; legend and method: 1 μM; read-out: PCTK1 PoC @ 1 µM.
Source text: as §3

In test [17] the target is T14, GSK3α (Homo sapiens, UniProt P49840).
T14 construct: purchased Eurofins DiscoverX Corporation
The test is described as follows: scanMAX binding assay, GSK3α. The following applies: Percent of Control; legend and method: 1 μM; read-out: GSK3α PoC @ 1 µM.
Source text: as §3

Test [18] concerns the target T3, CK1γ3. The experiment in a line: scanMAX binding assay, CK1γ3. As to conditions: Percent of Control; legend and method: 1 μM; read-out: CK1γ3 PoC @ 1 µM.
Source text: as §3

For test [19], the target named is T15, CDK7 (Homo sapiens, UniProt P50613).
T15 construct: purchased Eurofins DiscoverX Corporation
The experiment in a line: scanMAX binding assay, CDK7. The following applies: Percent of Control; legend and method: 1 μM; read-out: CDK7 PoC @ 1 µM.
Source text: as §3

Test [20] deals with T16, DYRK2 (Homo sapiens, UniProt Q92630).
T16 construct: purchased Eurofins DiscoverX Corporation
The experiment in a line: scanMAX binding assay, DYRK2. As to conditions: Percent of Control; legend and method: 1 μM; read-out: DYRK2 PoC @ 1 µM.
Source text: as §3

Test [21] concerns the target T17, CK1γ2 (Homo sapiens, UniProt P78368).
T17 construct: purchased Eurofins
The experiment in a line: scanMAX binding assay, CK1γ2. The following applies: Percent of Control; legend and method: 1 μM; read-out: CK1γ2 PoC @ 1 µM.
Source text: as §3

The target in test [22] is T18, DCAMKL3 (Homo sapiens, UniProt Q9C098).
T18 construct: purchased Eurofins DiscoverX Corporation
The test is described as follows: scanMAX binding assay, DCAMKL3. As to conditions: Percent of Control; legend and method: 1 μM; read-out: DCAMKL3 PoC @ 1 µM.
Source text: as §3

The target in test [23] is T19, ICK (Homo sapiens, UniProt Q9UPZ9).
T19 construct: purchased Eurofins DiscoverX Corporation
The experiment in a line: scanMAX binding assay, ICK. The following applies: Percent of Control; legend and method: 1 μM; read-out: ICK PoC @ 1 µM.
Source text: as §3

T9 sequence (Q9HCP0 whole entry): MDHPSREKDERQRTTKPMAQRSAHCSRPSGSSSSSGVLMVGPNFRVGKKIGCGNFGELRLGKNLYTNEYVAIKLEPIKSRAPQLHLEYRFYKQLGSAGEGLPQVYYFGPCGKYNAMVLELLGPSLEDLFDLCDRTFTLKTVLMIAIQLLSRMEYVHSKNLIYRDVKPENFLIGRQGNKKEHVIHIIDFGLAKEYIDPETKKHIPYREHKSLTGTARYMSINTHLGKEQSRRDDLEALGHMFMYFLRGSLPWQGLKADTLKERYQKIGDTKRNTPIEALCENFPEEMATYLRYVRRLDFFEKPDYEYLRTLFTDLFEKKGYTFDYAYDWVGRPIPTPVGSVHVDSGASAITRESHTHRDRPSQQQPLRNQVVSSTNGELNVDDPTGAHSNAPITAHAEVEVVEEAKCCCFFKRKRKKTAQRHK
T3 sequence (Q9Y6M4 whole entry): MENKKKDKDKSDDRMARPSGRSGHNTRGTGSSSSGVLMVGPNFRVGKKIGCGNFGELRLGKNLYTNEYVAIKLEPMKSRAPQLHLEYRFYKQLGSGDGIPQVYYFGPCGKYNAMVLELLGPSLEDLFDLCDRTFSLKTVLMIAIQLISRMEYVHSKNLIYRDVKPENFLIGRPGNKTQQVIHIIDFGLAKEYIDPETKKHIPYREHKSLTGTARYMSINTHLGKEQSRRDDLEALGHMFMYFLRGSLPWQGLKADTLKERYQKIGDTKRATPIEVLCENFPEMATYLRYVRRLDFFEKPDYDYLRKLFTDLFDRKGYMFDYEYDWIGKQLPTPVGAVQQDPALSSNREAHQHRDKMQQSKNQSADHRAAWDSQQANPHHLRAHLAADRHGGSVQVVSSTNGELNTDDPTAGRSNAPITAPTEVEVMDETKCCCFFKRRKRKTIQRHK
T11 sequence (Q8TD08 whole entry): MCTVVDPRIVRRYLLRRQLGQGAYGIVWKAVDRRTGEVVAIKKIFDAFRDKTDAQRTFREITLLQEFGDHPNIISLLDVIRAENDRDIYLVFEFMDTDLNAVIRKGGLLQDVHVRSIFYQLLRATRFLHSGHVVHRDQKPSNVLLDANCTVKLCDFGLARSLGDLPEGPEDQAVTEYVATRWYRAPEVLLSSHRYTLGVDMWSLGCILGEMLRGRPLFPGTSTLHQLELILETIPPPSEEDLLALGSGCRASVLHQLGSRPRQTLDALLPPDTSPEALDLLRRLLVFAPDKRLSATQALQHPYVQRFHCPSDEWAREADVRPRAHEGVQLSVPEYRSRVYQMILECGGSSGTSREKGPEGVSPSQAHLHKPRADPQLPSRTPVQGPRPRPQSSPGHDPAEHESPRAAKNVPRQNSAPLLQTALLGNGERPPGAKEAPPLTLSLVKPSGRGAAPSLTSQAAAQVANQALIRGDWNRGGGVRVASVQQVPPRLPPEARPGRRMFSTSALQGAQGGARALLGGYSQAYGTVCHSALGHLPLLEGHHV
T10 sequence (Q6P2M8 whole entry): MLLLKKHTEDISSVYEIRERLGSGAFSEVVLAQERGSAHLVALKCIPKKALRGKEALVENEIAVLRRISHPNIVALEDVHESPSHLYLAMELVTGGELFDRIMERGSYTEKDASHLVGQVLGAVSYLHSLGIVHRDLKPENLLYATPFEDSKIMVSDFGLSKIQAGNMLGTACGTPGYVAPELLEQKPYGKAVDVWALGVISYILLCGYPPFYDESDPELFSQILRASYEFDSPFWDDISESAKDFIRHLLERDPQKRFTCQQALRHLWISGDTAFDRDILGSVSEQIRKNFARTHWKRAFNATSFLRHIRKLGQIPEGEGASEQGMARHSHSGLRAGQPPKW
T15 sequence (P50613 whole entry): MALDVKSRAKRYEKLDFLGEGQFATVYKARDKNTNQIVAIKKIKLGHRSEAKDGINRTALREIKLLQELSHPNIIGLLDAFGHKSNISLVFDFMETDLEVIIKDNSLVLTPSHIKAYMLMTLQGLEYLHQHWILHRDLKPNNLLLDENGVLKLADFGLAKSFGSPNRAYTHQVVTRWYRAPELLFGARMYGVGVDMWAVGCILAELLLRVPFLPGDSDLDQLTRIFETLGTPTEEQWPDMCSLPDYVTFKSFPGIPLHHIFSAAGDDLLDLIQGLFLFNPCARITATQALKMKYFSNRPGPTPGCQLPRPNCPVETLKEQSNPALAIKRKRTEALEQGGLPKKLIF
T12 sequence (O76039 whole entry): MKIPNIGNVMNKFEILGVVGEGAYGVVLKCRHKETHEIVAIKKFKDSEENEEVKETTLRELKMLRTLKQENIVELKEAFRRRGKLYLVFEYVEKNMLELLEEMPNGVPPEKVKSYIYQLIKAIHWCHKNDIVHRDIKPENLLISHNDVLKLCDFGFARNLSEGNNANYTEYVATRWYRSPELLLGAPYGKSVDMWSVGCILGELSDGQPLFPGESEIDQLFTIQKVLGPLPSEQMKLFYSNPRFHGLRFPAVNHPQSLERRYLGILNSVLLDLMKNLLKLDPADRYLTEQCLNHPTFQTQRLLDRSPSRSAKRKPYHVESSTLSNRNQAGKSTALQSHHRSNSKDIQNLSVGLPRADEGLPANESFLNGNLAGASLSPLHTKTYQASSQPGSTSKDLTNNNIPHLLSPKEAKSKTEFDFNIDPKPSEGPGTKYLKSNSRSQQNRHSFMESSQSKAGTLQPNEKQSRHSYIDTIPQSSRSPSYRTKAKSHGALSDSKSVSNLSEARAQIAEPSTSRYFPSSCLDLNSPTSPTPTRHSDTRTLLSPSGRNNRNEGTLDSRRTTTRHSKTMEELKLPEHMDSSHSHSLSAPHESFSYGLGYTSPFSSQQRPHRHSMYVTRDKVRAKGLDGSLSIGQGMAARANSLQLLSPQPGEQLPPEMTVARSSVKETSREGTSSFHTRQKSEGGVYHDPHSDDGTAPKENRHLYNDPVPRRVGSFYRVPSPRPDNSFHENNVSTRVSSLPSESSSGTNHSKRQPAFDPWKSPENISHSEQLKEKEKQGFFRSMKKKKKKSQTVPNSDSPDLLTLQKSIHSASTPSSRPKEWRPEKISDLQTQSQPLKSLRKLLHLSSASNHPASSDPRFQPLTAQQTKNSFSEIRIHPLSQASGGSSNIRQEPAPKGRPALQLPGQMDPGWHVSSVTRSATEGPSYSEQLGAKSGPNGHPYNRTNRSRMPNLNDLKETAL
T17 sequence (P78368 whole entry): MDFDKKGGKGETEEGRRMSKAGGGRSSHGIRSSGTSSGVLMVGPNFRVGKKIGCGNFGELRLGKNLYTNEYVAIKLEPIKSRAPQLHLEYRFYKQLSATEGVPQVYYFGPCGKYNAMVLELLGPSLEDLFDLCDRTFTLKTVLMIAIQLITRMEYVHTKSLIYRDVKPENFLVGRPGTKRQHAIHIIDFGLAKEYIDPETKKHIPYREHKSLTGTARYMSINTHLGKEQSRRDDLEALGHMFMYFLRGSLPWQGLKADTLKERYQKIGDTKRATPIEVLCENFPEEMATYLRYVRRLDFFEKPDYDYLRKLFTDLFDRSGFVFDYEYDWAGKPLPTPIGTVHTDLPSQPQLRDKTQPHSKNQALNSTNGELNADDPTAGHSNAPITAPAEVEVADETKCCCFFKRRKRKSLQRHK
T1 sequence (P78368 whole entry): as above
T6 sequence (O94921 whole entry): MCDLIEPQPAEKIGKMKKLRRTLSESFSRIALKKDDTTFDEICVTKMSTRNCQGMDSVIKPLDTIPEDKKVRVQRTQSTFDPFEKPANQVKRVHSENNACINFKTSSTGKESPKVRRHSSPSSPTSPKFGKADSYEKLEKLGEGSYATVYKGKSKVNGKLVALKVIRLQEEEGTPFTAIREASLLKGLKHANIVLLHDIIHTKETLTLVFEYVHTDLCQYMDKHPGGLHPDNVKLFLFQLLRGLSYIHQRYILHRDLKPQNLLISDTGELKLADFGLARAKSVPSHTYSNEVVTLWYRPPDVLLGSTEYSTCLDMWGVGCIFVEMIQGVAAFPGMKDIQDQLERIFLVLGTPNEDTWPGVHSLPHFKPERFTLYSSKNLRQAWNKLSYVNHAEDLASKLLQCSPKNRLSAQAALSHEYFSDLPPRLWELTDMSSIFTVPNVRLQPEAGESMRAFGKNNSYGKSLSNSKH
T13 sequence (Q00536 whole entry): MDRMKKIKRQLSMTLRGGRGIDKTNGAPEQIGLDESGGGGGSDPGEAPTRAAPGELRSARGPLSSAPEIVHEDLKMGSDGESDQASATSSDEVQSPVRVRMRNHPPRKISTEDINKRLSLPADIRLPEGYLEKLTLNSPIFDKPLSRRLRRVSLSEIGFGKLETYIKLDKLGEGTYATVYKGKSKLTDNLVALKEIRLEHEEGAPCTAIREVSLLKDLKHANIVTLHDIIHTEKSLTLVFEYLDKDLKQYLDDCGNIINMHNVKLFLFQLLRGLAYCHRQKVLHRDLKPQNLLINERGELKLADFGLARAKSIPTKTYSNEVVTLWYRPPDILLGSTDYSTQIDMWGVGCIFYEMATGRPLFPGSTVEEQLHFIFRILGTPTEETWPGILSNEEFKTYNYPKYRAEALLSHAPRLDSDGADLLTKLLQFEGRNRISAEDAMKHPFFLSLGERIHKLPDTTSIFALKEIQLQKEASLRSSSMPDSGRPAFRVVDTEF

`Cc1cc(-c2ccc(CC(=O)Nc3ccc(-c4cccnc4)cc3)cc2)ccn1` [C59, reference compound]: the “BAR activation by CK1γ3 overexpression in the absence of WNT3A CM” value in test [1] (HEK293T B/R cells transfected 14 h, 10 μM C59 for 18 h) was “blocked this activation”.
One may read the IC50 as the concentration that gives 50% inhibition. For the molecule `Cc1cc(Nc2cc(C3CC3)[nH]n2)nc(Nc2ccc(CC#N)cc2)n1` [APY69, reference compound], the “NL-CK1γ2 NanoBRET IC50” value in test [2] was “inactive”. In [3], the IC50 was determined as 0.23 nM.
Regarding ERBB2, in [4], the “Fold over control siRNA” value is listed as 3.138 and the “Average BAR firefly Luciferase (Raw)” value is given as 83000.
As to `Cc1c[nH]c(-c2cnc(NCCNc3ccc(C#N)cn3)nc2-c2ccc(Cl)cc2Cl)n1` [CHIR99021, reference compound], the “activation of the BAR reporter” value in test [1] is reported as “robustly activated”.
On to `CN(C)CC(=O)Nc1n[nH]c2ccc(-c3cn(Cc4ccccc4)nn3)cc12` [AKI00000062a], for which the IC50 was ≤ 275 nM and 168 nM in test [5]; ≤ 275 nM and 275 nM in test [14]. The remaining binding at 1 µM in [6] came out at 1.4%; in test [7] it was 1.2%; in test [8] it was 3.5%; in test [9], 6%; in test [10] it was 0.4%; in test [11], 5.2%. The remaining binding at 1 µM in test [12] stood at 0%; in [13], 2.5%; in test [15] it was 0.2%; in [16] it was 0.2%; in test [17], 0.9%; in test [18], 3.3%. Besides, the remaining binding at 1 µM amounted to 1.2% in [19]; 7.2% in test [20]; 1% in test [21]; 1.9% in test [22]; 1.6% in [23]. Also, in [1], the “activation of the BAR reporter” value is “robustly activated”.
Take EPHA2: in test [4], the “Fold over control siRNA” value is recorded as 0.4994 and the “Average BAR firefly Luciferase (Raw)” value was 13210.
